According to ChEMBL document CHEMBL6071135, “New resorcylic acid derivatives of Lysimachia tengyuehensis against MRSA and VRE by interfering with bacterial metabolic imbalance” (Eur J Med Chem, 2024):
Values after ≈ are worked out from the molar mass of the structure shown. Active and inactive are the calls of the source. No cut-off for these calls is given here.

Tests used:
[1] = tested on: Enterococcus faecalis; experiment: Antibacterial activity against vancomycin-resistant Enterococcus faecalis ATCC51299 measured after 24 hrs by CLSI based broth microdilution method; assay type: functional
[2] = tested on: Enterococcus faecalis; experiment: Bactericidal activity against vancomycin-resistant Enterococcus faecalis ATCC51299 measured after 24 hrs by CLSI based broth microdilution method; assay type: functional
[3] = tested on: Staphylococcus aureus; experiment: Bactericidal activity against methicillin-resistant Staphylococcus aureus measured after 24 hrs by CLSI based broth microdilution method; assay type: functional
[4] = tested on: Staphylococcus aureus; experiment: Antibacterial activity against methicillin-resistant Staphylococcus aureus measured after 24 hrs by CLSI based broth microdilution method; assay type: functional
[5] = Toxicity in Kunming mouse assessed as morphological abnormalities at 8 mg/kg administered daily and measured after 7 days; assay type: organism-based; conditions: in vivo, 168 h, time 7 day
[6] = tested on: Staphylococcus aureus; experiment: Antibacterial activity against methicillin resistant Staphylococcus aureus infected in female Kunming mouse model of skin infection assessed as increase in neovascularization at 8 mg/kg administered daily pre-infected for 4 hrs followed by compound administration for 7 days; assay type: functional, organism-based; conditions: time 7.0 day
[7] = tested on: Staphylococcus aureus; experiment: Antibacterial activity against methicillin resistant Staphylococcus aureus infected in female Kunming mouse model of skin infection assessed as reduction in wound size at 8 mg/kg administered daily pre-infected for 4 hrs followed by compound administration for 7 days; assay type: functional, organism-based; conditions: time 7.0 day
[8] = tested on: Staphylococcus aureus; experiment: Antibacterial activity against methicillin resistant Staphylococcus aureus infected in female Kunming mouse model of skin infection assessed as suppression of purulent secretion at 8 mg/kg administered daily pre-infected for 4 hrs followed by compound administration for 7 days; assay type: functional, organism-based; conditions: time 7.0 day
[9] = tested on: Staphylococcus aureus; experiment: Antibacterial activity against methicillin resistant Staphylococcus aureus infected in female Kunming mouse model of skin infection assessed as reduction in inflammatory cell infiltration at 8 mg/kg administered daily pre-infected for 4 hrs followed by compound administration for 7 days; assay type: functional, organism-based; conditions: time 7.0 day
[10] = tested on: Staphylococcus aureus; experiment: Antibacterial activity against methicillin resistant Staphylococcus aureus infected in female Kunming mouse model of skin infection assessed as reduction in bacterial load of wound at 8 mg/kg administered daily pre-infected for 4 hrs followed by compound administration for 7 days; assay type: functional, organism-based; conditions: time 7.0 day
[11] = tested on: Staphylococcus aureus; experiment: Bactericidal activity against methicillin-resistant Staphylococcus aureus assessed as reduction in number of bacteria at 2 times MIC measured within 1 hr by time-kill assay; assay type: functional, organism-based
[12] = tested on: Enterococcus faecalis; experiment: Bactericidal activity against vancomycin-resistant Enterococcus faecalis ATCC51299 assessed as reduction in number of bacteria at 2 times MIC measured within 1 hr by time-kill assay; assay type: functional, organism-based
[13] = tested on: Enterococcus faecalis; experiment: Drug resistance, ratio of MIC for vancomycin-resistant Enterococcus faecalis ATCC51299 after 20 days exposure to MIC for vancomycin-resistant Enterococcus faecalis ATCC51299 during first exposure; assay type: functional; conditions: time 20 day

SMILES	MIC [1]	MBC [2]	MBC [3]	MIC [4]	further results
CCCCCCCCCCCCc1cc(O)cc(O)c1	4 µg/mL (≈ 14.4 µM)	4 µg/mL (≈ 14.4 µM)	8 µg/mL (≈ 28.7 µM)	8 µg/mL (≈ 28.7 µM)	
CCCCCCCCCCCCc1cc(O)cc(O)c1C(=O)O	4 µg/mL (≈ 12.4 µM)	4 µg/mL (≈ 12.4 µM)	8 µg/mL (≈ 24.8 µM)	8 µg/mL (≈ 24.8 µM)	
CN[C@H](CC(C)C)C(=O)N[C@H]1C(=O)N[C@@H](CC(N)=O)C(=O)N[C@H]2C(=O)N[C@H]3C(=O)N[C@H](C(=O)N[C@H](C(=O)O)c4cc(O)cc(O)c4-c4cc3ccc4O)[C@H](O)c3ccc(c(Cl)c3)Oc3cc2cc(c3O[C@@H]2O[C@H](CO)[C@@H](O)[C@H](O)[C@H]2O[C@H]2C[C@](C)(N)[C@H](O)[C@H](C)O2)Oc2ccc(cc2Cl)[C@H]1O [VANCOMYCIN]					Activity [5]: Non-Toxic; Activity [6]: Active; Activity [7]: Active; Activity [8]: Active; Activity [9]: Active; Activity [10]: Active; Activity [11]: inactive
CCCCCCCCCCCc1cc(O)cc(O)c1C(=O)O	8 µg/mL (≈ 25.9 µM)	8 µg/mL (≈ 25.9 µM)	8 µg/mL (≈ 25.9 µM)	8 µg/mL (≈ 25.9 µM)	
COc1cccc(OC)c1C(=O)N[C@@H]1C(=O)N2[C@@H]1SC(C)(C)[C@@H]2C(=O)O [METHICILLIN]				> 128 µg/mL	
CC1(C)S[C@@H]2[C@H](NC(=O)[C@H](N)c3ccccc3)C(=O)N2[C@H]1C(=O)O [AMPICILLIN]	2 µg/mL (≈ 5.72 µM)				Activity [12]: inactive; fold change (FC) [13]: 4
CCCCCCCCCCCCCc1cc(O)cc(O)c1C(=O)O	8 µg/mL (≈ 23.8 µM)	8 µg/mL (≈ 23.8 µM)	4 µg/mL (≈ 11.9 µM)	4 µg/mL (≈ 11.9 µM)	
CCCCCCCCCCCCCCc1cc(O)cc(O)c1C(=O)O	4 µg/mL (≈ 11.4 µM)	8 µg/mL (≈ 22.8 µM)	4 µg/mL (≈ 11.4 µM)	4 µg/mL (≈ 11.4 µM)	
CCCCCCCCCCCCCc1cc(O)cc(O)c1	4 µg/mL (≈ 13.7 µM)	4 µg/mL (≈ 13.7 µM)	4 µg/mL (≈ 13.7 µM)	4 µg/mL (≈ 13.7 µM)	
